Laboratory results: US12378249B2, “Isoquinoline compounds and uses thereof” (Genentech, Inc., priority 2018, dated 2025)

Legend:
HPK1 [1] = biological target: HPK1 (Homo sapiens (Human), UniProt Q92918); test: HPK1 Lantha Binding Assay (Lanth); conditions: 2 nM HPK1, 15 nM Tracer222, Morrison Ki fit, read-out: HPK1 Ki (nM), L = Lanth
Description: Example B2: HPK1 Lantha Binding Assay (“Lanth”)
Procedure: I. Compound Dilution:
The compounds to be tested were diluted by preparing 12.5 uL/well of 5 mM compound (100×) in columns 2 and 13 and 10 ul/well of DMSO in columns 3-12, 14-23, and wells A1-H1 and I24-P24 of the compound plate using a Bravo liquid handling platform. For the reference compound, the top concentration was 1 mM. To the plate was added 10 ul 2 mM staurosporine in wells J1-P1 and A24-H24. A 11 point 5-fold compound serial dilution was performed using the Bravo liquid handling platform. From the plate were transferred 2.5 ul of the solutions from column 2 and column 13 to the 10 ul of DMSO in columns 3 and 14 & so on. The compound plate was centrifuged at 2500 rpm for 1 min. From the compound plate was transferred 80 nl of the compounds into an assay plate using the Echo liquid handler system. One compound plate makes two assay plates. Each assay plate is sealed and stored in an N2 cabinet.
The following assay concentrations and times were used: 2 nM HPK1, 2 nM Eu-Anti-GST Ab, and 15 nM Tracer222, with 60 min incubation time.
III. HPK Lantha Binding Assay:
For the binding assay, 4 ul 2X HPK1 and Eu-anti-GST antibody were added to each well of the assay plate using a Multidrop reagent dispenser. The solutions were incubated in a 23 C incubator for 1 h. To each well of the assay plate was added 4 ul 2× Tracer-222 using a Multidrop reagent dispenser. The solutions were again incubated in a 23 C incubator for 1 h. The results of the assay were read using an Envision plate reader with the following parameters:TR_FRET, 340ex/615 and 665em; 100 usec Delay; and 200 usec integration.
Compound Ki was analyzed using Morrison ki fit model in XL-fit • a. fit=(1-((((E+x)+(Ki*(1+(S/Kd))))−(((((E+x)+(Ki*(1+(S/Kd))))^2)−((4*E)*x))^0.5))/(2*E))) • res=(y-fit) • b. Parameters: • E=enzyme concentration • S=Tracer222 concentration, Kd=Tracer222 Kd • All measurements reported using the same units (uM)
Exemplary compounds were tested in the binding assays.

[2] = system: primary human pan T cells; test: Human T-cell IL2 Induction Assay; type: cell-based; conditions: assayed concentration 0.31 μM; anti-CD3/anti-CD28 stimulated, 4 hours
Description: Example B3: Human T-cell IL2 Induction Assay
Anti-CD3 and anti-CD28 activates TCR signaling in primary human pan T cells leading to IL-2 promoter induction. Secreted IL-2 in cell culture supernatant is detected by electrochemiluminescence using a capture antibody against IL-2 and an anti-IL-2 antibody labeled with SULFO-tag.
See www.mesoscale.com for additional electrochemiluminescence technology information.
Incubate primary human pan T cells with varying concentrations of test compounds for 30 minutes in a humidified incubator at 37° C. and 5% CO2. Transfer cells to a plate pre-coated with a fixed concentration of anti-human CD3 (determined separately for each donor lot) and add soluble anti-human CD28 (final concentration=1 μg/ml). Stimulate cells in a humidified incubator at 37° C. and 5% CO2 for 4 hours. Transfer 25 μl of supernatant to a MSD single spot plate pre-coated with an anti-human IL-2 antibody. Incubate MSD plate overnight at 4° C. with gentle shaking. Wash MSD plate 4× with wash buffer. Add SULFO-tagged detection antibody at a 1:50 dilution and incubate at room temperature shaking for 2 hours. Wash MSD plate 4× with wash buffer and add 150 μl 2×MSD read buffer. Read on an MSD instrument. Normalize data to stimulated/untreated controls to calculate % activity at each concentration of compound.
• Frozen Primary Human Pan-T Cells (StemCell Technologies #70024) • anti-human CD3 (OKT3 clone) (eBioscience #16-0037-81) • anti-human CD28 (CD28.2 clone) (BD #555725) • 96-well Human IL-2 tissue culture kit (MSD #K151AHB-4) Instrumentation: • Biomek FX for liquid handling (Beckman Coulter) • MSD SECTOR S 600 (Meso Scale Discovery)
Exemplary compounds of Formula (I) were tested in the human T-cell IL-2 induction assays. The % increase measured for IL-2 in cells treated by the test compounds relative to untreated cells are provided in Table B2 for certain compounds.

HPK1 [3] = biological target: HPK1 (Homo sapiens (Human), UniProt Q92918, S171E/T165E); test: HPK1-FL HTRF Enzymatic Assay (HTRF); type: biochemical; conditions: HPK full length T165E S171E 0.125 nM, ATP 1 mM, Biotin-SLP76 100 nM, read-out: HPK1 Ki (nM), H = HTRF
In short: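 Ki derived from % activity calculated from the TR-FRET 665/620 ratio, using Eu-anti-pSLP76 and SA-XL665 detection added for 60 min. Reaction: compound preincubated 30 min with full-length double-mutant HPK1, then 60 min with Biotin-SLP-76 and 1 mM ATP, pH 7.5 HEPES buffer.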

HPK1 (Homo sapiens (Human), UniProt Q92918, S171E/T165E), sequence (Q92918 whole entry T165E/S171E): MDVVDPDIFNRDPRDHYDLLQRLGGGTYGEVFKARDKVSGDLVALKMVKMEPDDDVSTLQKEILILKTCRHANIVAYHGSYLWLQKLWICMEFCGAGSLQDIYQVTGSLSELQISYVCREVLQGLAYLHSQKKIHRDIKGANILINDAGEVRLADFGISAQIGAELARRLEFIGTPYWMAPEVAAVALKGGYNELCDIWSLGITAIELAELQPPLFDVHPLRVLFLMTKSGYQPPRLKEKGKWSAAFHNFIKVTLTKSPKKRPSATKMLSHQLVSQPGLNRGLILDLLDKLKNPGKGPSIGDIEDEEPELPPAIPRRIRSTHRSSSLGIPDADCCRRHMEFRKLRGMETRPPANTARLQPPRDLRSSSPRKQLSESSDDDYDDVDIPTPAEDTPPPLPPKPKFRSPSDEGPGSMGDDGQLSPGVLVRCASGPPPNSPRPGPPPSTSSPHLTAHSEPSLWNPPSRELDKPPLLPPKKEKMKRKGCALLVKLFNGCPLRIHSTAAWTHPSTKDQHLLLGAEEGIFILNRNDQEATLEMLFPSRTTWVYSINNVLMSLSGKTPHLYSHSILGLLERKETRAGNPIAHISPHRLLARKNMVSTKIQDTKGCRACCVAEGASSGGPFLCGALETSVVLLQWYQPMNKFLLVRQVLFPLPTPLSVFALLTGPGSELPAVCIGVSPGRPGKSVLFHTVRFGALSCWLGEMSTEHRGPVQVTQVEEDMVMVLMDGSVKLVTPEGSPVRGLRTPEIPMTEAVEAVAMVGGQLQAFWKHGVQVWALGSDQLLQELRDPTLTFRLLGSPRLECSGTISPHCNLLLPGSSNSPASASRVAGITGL
HPK1 (Homo sapiens (Human), UniProt Q92918), sequence (Q92918 1-346): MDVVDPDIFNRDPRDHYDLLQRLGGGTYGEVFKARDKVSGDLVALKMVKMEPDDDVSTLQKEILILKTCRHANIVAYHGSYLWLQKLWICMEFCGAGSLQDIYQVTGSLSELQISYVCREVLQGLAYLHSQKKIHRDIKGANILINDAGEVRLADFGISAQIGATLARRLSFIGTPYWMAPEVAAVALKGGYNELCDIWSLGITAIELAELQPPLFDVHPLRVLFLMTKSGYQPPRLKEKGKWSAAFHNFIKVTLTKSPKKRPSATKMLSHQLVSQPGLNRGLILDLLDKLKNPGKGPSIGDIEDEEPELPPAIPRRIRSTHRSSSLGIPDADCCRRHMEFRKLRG

SMILES	Ki (HPK1 [1]) [nM]	Ki (HPK1 [3]) [nM]	other results
CN1CCC(Cn2cc(Nc3cc4cc(-c5c(Cl)cccc5Cl)ccc4cn3)cn2)C1 (racemic) [Compound 102, (+/-)-6-(2,6-dichlorophenyl)-N-(1-((1-methylpyrrolidin-3-yl)methyl)-1H-pyrazol-4-yl)isoquinolin-3-amine]	68		
Clc1cccc(Cl)c1-c1ccc2cnc(Nc3cnn(C4CCOC4)c3)cc2c1 (racemic) [Compound 103, (+/-)-6-(2,6-dichlorophenyl)-N-(1-(tetrahydrofuran-3-yl)-1H-pyrazol-4-yl)isoquinolin-3-amine]	180		
Clc1cccc(Cl)c1-c1ccc2cnc(Nc3ccncn3)cc2c1 [Compound 101, 6-(2,6-dichlorophenyl)-N-(pyrimidin-4-yl)isoquinolin-3-amine]	110		
Fc1cccc(Cl)c1-c1ccc2cnc(Nc3ccncn3)cc2c1 [Compound 104, 6-(2-chloro-6-fluorophenyl)-N-(pyrimidin-4-yl)isoquinolin-3-amine]	57		
Cc1ccncc1-c1ccc2cnc(Nc3cc(C(F)F)ccn3)cc2c1 [Compound 106, N-(4-(difluoromethyl)pyridin-2-yl)-6-(4-methylpyridin-3-yl)isoquinolin-3-amine]	6.6		
Cc1cc(Nc2cc3cc(-c4cnccc4C)ccc3cn2)ncn1 [Compound 107, 6-(4-methylpyridin-3-yl)-N-(6-methylpyrimidin-4-yl)isoquinolin-3-amine]	9		
Cc1ccnc(Nc2cc3cc(-c4cnccc4C)ccc3cn2)c1 [Compound 108, N-(4-methylpyridin-2-yl)-6-(4-methylpyridin-3-yl)isoquinolin-3-amine]	4.4		
Cc1c(-c2cc3cc(Nc4cc5n(n4)CC(=O)N(C(C)C)C[C@@H]5O)ncc3cc2F)cnc2c1NCCO2 [Compound 141b, (S)-2-((7-fluoro-6-(8-methyl-2,3-dihydro-1H-pyrido[2,3-b][1,4]oxazin-7-yl)isoquinolin-3-yl)amino)-4-hydroxy-6-isopropyl-5,6-dihydro-4H-pyrazolo[1,5-d][1,4]diazepin-7(8H)-one]			% IL-2 increase relative to untreated cells [2]: 350%
CNCc1cc(C)c(-c2ccc3cnc(Nc4cc5n(n4)CC(=O)N(C)CC5)cc3c2)c(F)c1 [Compound 222, 2-((6-(2-fluoro-6-methyl-4-((methylamino)methyl)phenyl)isoquinolin-3-yl)amino)-6-methyl-5,6-dihydro-4H-pyrazolo[1,5-d][1,4]diazepin-7(8H)-one]		5.2	
Cc1c(N)cncc1-c1cc(F)c2cnc(Nc3cc4n(n3)CC(=O)NCC43CC3)cc2c1 [Compound 225, 2′-((6-(5-amino-4-methylpyridin-3-yl)-8-fluoroisoquinolin-3-yl)amino)-5′,6′-dihydrospiro[cyclopropane-1,4′-pyrazolo[1,5-d][1,4]diazepin]-7′(8′H)-one]		0.013	
CN1CCc2cc(Nc3cc4cc(-c5cncc(N)c5C(F)(F)F)c(F)cc4cn3)nn2CC1=O [Compound 227, 2-((6-(5-amino-4-(trifluoromethyl)pyridin-3-yl)-7-fluoroisoquinolin-3-yl)amino)-6-methyl-5,6-dihydro-4H-pyrazolo[1,5-d][1,4]diazepin-7(8H)-one]		0.29	

Continued, in another order:

Ki (HPK1 [1]) [nM]	Ki (HPK1 [3]) [nM]	SMILES	other results
	97	Cc1c(-c2cc3cc(Nc4cc5n(n4)CC(=O)N(C)CC5)ncc3cc2F)ccc2c1CNC2 [Compound 221, 2-((7-fluoro-6-(4-methylisoindolin-5-yl)isoquinolin-3-yl)amino)-6-methyl-5,6-dihydro-4H-pyrazolo[1,5-d][1,4]diazepin-7(8H)-one]	
	0.04	Cc1c(-c2c(F)cc3cnc(Nc4cc5n(n4)CC(=O)N(C)CC5)cc3c2F)cnc2c1NCCO2 [Compound 223, 2-((5,7-difluoro-6-(8-methyl-2,3-dihydro-1H-pyrido[2,3-b][1,4]oxazin-7-yl)isoquinolin-3-yl)amino)-6-methyl-5,6-dihydro-4H-pyrazolo[1,5-d][1,4]diazepin-7(8H)-one]	
	0.013	Cc1c(N)cncc1-c1cc2cc(Nc3cc4n(n3)CC(=O)NCC43CC3)ncc2cc1F [Compound 224, 2′-((6-(5-amino-4-methylpyridin-3-yl)-7-fluoroisoquinolin-3-yl)amino)-5′,6′-dihydrospiro[cyclopropane-1,4′-pyrazolo[1,5-d][1,4]diazepin]-7′(8′H)-one]	
	0.793	Cc1c(-c2cc3cc(Nc4cc5n(n4)CC(=O)NCC5)ncc3cc2F)cnc2c1NCCOC2 [Compound 230, 2-((7-fluoro-6-(9-methyl-1,2,3,5-tetrahydropyrido[3,2-e][1,4]oxazepin-8-yl)isoquinolin-3-yl)amino)-5,6-dihydro-4H-pyrazolo[1,5-d][1,4]diazepin-7(8H)-one]	
	11	Cc1c(-c2cc3cc(Nc4cc5n(n4)CC(=O)N(C)CC5)ncc3cc2F)cnc2c1CNCCO2 [Compound 232, 2-((7-fluoro-6-(6-methyl-2,3,4,5-tetrahydropyrido[3,2-f][1,4]oxazepin-7-yl)isoquinolin-3-yl)amino)-6-methyl-5,6-dihydro-4H-pyrazolo[1,5-d][1,4]diazepin-7(8H)-one]	
	0.155	Cc1ncc(-c2cc(F)c3cnc(Nc4cc5n(n4)CC(=O)NCC5)cc3c2)c(C)c1N [Compound 233, 2-((6-(5-amino-4,6-dimethylpyridin-3-yl)-8-fluoroisoquinolin-3-yl)amino)-5,6-dihydro-4H-pyrazolo[1,5-d][1,4]diazepin-7(8H)-one]	
	0.076	Cc1c(CC#N)cncc1-c1cc(F)c2cnc(Nc3cc4n(n3)CC(=O)NCC4)cc2c1 [Compound 238, 2-(5-(8-fluoro-3-((7-oxo-5,6,7,8-tetrahydro-4H-pyrazolo[1,5-d][1,4]diazepin-2-yl)amino)isoquinolin-6-yl)-4-methylpyridin-3-yl)acetonitrile]	
	0.062	Cc1c(NCC(F)(F)F)cncc1-c1cc2cc(Nc3cc4n(n3)CC(=O)NCC4)ncc2cc1F [Compound 239, 2-((7-fluoro-6-(4-methyl-5-((2,2,2-trifluoroethyl)amino)pyridin-3-yl)isoquinolin-3-yl)amino)-5,6-dihydro-4H-pyrazolo[1,5-d][1,4]diazepin-7(8H)-one]	
	0.014	Cc1c(-c2cc3cc(Nc4cc5n(n4)CC(=O)N(C)CC5)ncc3cc2F)cnc2c1NCC(C)(C)C2=O [Compound 240, 2-((7-fluoro-6-(4,7,7-trimethyl-8-oxo-5,6,7,8-tetrahydro-1,5-naphthyridin-3-yl)isoquinolin-3-yl)amino)-6-methyl-5,6-dihydro-4H-pyrazolo[1,5-d][1,4]diazepin-7(8H)-one]	
	0.013	Cc1c(-c2cc3cc(Nc4cc5n(n4)CC(=O)N(C)OC5)ncc3cc2F)cnc2c1NCCO2 [Compound 244, 2-((7-fluoro-6-(8-methyl-2,3-dihydro-1H-pyrido[2,3-b][1,4]oxazin-7-yl)isoquinolin-3-yl)amino)-6-methyl-4H,6H-pyrazolo[1,5-e][1,2,5]oxadiazepin-7(8H)-one]	
